The source of these data is US20260000692A1, “Substituted N-(Pyridin-2-yl)Acetamide Derivatives as CDK12/13 Inhibitors” (Aurigene Oncology Limited, priority 2022, published 2026).

For this experiment, the target named is CDK12 (Homo sapiens, UniProt Q9NYV4). The experiment in a line: Biochemical assay for CDK12 (LANCE TR-FRET, IC50 determination). To be noted: for IC50: CDK12, IC50 class, read-out: IC50 μM (in range); for inhibition at 10 µM: read-out: CDK12 % Inhibition @ 10 μM. The essentials: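 30 nM CDK12 phosphorylated 100 nM ULight-4E-BP1 (Thr37/Thr46) peptide at 100 µM ATP, as printed, in HEPES pH 7.5 buffer with MgCl2 and DTT. Compound and enzyme were preincubated 60 min, then reacted 60 min at room temperature before stopping with EDTA and Eu anti-phospho antibody. TR-FRET 665/615 ratio gave sigmoidal IC50 fits.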
CDK12, sequence (Q9NYV4 whole entry): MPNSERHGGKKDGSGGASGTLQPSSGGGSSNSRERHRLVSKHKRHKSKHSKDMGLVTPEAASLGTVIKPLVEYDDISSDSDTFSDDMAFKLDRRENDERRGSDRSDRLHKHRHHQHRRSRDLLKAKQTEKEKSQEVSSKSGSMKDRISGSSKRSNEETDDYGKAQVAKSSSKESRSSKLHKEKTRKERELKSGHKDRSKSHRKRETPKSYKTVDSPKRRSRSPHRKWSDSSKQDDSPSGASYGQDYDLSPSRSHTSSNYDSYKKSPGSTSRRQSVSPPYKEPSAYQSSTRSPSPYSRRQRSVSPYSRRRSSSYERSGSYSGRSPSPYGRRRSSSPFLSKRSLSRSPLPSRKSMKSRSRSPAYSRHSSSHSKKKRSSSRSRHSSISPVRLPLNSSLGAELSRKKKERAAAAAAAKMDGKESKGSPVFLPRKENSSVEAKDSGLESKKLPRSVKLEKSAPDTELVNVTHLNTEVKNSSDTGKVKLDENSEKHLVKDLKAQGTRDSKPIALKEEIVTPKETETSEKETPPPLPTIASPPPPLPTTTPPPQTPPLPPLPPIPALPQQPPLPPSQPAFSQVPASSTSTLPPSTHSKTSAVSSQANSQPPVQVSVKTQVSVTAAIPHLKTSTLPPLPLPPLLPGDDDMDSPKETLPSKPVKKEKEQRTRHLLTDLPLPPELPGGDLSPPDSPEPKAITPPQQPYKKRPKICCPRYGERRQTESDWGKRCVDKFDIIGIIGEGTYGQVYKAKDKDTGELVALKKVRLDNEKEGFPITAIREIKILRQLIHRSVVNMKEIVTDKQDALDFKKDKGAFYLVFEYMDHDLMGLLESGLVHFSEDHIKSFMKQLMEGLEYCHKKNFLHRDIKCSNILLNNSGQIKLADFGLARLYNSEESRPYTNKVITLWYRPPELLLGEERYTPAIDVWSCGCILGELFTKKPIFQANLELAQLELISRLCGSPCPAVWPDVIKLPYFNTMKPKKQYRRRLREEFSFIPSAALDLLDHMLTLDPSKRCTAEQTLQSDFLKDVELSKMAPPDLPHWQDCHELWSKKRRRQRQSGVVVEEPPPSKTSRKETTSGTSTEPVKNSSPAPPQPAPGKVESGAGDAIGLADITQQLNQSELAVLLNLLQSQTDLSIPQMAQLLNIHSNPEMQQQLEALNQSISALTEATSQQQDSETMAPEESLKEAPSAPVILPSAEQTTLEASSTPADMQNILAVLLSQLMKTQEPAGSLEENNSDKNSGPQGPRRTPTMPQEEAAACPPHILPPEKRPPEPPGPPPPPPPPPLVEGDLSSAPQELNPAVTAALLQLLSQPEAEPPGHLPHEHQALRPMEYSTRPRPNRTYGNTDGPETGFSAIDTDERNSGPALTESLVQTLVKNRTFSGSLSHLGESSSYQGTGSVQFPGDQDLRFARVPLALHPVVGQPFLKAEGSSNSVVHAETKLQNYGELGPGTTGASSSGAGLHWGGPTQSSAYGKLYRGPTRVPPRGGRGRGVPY
CDK12, sequence (O75909 whole entry partner): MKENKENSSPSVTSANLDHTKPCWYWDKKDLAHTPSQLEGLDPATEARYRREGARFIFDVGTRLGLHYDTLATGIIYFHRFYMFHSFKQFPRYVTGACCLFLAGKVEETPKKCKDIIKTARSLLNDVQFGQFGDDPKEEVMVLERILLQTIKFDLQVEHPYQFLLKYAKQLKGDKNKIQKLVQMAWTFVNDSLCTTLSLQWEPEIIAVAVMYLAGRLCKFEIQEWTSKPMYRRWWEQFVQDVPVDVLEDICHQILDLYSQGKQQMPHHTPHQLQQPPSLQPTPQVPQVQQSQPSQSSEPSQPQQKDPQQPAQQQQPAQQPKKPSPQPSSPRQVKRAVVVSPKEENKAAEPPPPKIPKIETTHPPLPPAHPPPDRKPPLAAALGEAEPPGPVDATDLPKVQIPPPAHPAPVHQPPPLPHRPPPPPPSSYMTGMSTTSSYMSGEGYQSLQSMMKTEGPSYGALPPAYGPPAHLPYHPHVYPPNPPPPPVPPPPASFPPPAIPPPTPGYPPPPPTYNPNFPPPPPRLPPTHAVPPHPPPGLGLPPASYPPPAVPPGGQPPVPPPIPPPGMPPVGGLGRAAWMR

For the molecule `CNC(=O)[C@H](C)Oc1cc(NC(=O)Cc2ccc(-c3cccc(C#N)n3)nc2)ncc1Cl` [Compound 190, 2-((5-chloro-2-(2-(6′-cyano-[2,2′-bipyridin]-5-yl)acetamido)pyridin-4-yl)oxy)-N-methylpropanamide], the IC50 (in general, the concentration at which inhibition is half-maximal) is less than 0.01 µM. The inhibition (as a rule, the relative decrease from the control value, in per cent) at 10 µM (compound at 10 μM) turned out to be 87%.
Turning to `COc1cc(NC(=O)Cc2ccc(-c3cc(N4CCN(C)CC4)cc(C#N)n3)nc2)ncc1Cl` [Compound 191, N-(5-chloro-4-methoxypyridin-2-yl)-2-(6′-cyano-4′-(4-methylpiperazin-1-yl)-[2,2′-bipyridin]-5-yl)acetamide], the IC50 was in the range of 0.01 to 0.1 µM. The inhibition at 10 µM (compound at 10 μM) is 94%.
Turning to `COc1cc(NC(=O)Cc2ccc(-c3cc(N4CCC(C)(O)CC4)cc(C#N)n3)nc2)ncc1Cl` [Compound 192, N-(5-chloro-4-methoxypyridin-2-yl)-2-(6′-cyano-4′-(4-hydroxy-4-methylpiperidin-1-yl)-[2,2′-bipyridin]-5-yl)acetamide], the IC50 was 0.01 to 0.1 µM. The inhibition at 10 µM (compound at 10 μM) worked out at 88%.
`COc1cc(NC(=O)Cc2ccc(-c3cc(N4CC(OC)C4)cc(C#N)n3)nc2)ncc1Cl` [Compound 193, N-(5-chloro-4-methoxypyridin-2-yl)-2-(6′-cyano-4′-(3-methoxyazetidin-1-yl)-[2,2′-bipyridin]-5-yl)acetamide]: the IC50 is more than 0.1 µM. Also, the inhibition at 10 µM (compound at 10 μM) turned out to be 68%.
In the case of `COc1cc(NC(=O)Cc2ccc(-c3cc(N4CCC(C)(O)C4)cc(C#N)n3)nc2)ncc1Cl` (centres unmarked) [Compound 194, N-(5-chloro-4-methoxypyridin-2-yl)-2-(6′-cyano-4′-(3-hydroxy-3-methylpyrrolidin-1-yl)-[2,2′-bipyridin]-5-yl)acetamide], the IC50 is more than 0.1 µM. Also, for the setting “compound at 10 μM”, the inhibition at 10 µM was 94%.
Taken in the same sequence, the figures for `COc1cc(NC(=O)Cc2ccc(-c3cc(N4C[C@H]5CC[C@@H](C4)O5)cc(C#N)n3)nc2)ncc1Cl` [Compound 195, 2-(4′-((1R,5S)-8-oxa-3-azabicyclo[3.2.1]octan-3-yl)-6′-cyano-[2,2′-bipyridin]-5-yl)-N-(5-chloro-4-methoxypyridin-2-yl)acetamide] were 0.01 to 0.1 µM and 84%.
As for `COc1cc(NC(=O)Cc2ccc(-c3cc(O[C@H]4CCOC4)cc(C#N)n3)nc2)ncc1Cl` [Compound 196, (S)-N-(5-chloro-4-methoxypyridin-2-yl)-2-(6′-cyano-4′-((tetrahydrofuran-3-yl)oxy)-[2,2′-bipyridin]-5-yl)acetamide], the IC50 lay within 0.01 to 0.1 µM. Also, the inhibition at 10 µM (compound at 10 μM) amounted to 89%.
`COc1cc(NC(=O)Cc2ccc(-c3cc(O[C@H]4CCOC4)cc(C#N)n3)nc2)ncc1Cl` [Compound 197, (S)-N-(5-chloro-4-methoxypyridin-2-yl)-2-(6′-cyano-4′-((tetrahydrofuran-3-yl)oxy)-[2,2′-bipyridin]-5-yl)acetamide]: the IC50 lay in the range of 0.01 to 0.1 µM. Where the note is “compound at 10 μM, 10 µM”, the “CDK12 % Inhibition @ 10 μM” value is 87%.
As for `COc1cc(NC(=O)Cc2ccc(-c3cc(OC4CCN(C)CC4F)cc(C#N)n3)nc2)ncc1Cl` (centres unmarked) [Compound 198, N-(5-chloro-4-methoxypyridin-2-yl)-2-(6′-cyano-4′-((3-fluoro-1-methylpiperidin-4-yl)oxy)-[2,2′-bipyridin]-5-yl)acetamide], the IC50 lay in the range of 0.01 to 0.1 µM. Besides, the inhibition at 10 µM (compound at 10 μM) was 100%.
For `COc1cc(NC(=O)Cc2ccc(-c3cc(OC4CCCN(C)C4)cc(C#N)n3)nc2)ncc1Cl` (centres unmarked) [Compound 199, N-(5-chloro-4-methoxypyridin-2-yl)-2-(6′-cyano-4′-((1-methylpiperidin-3-yl)oxy)-[2,2′-bipyridin]-5-yl)acetamide], the IC50 is less than 0.01 µM. Further, where the note is “compound at 10 μM”, the inhibition at 10 µM amounted to 88%.
